This is an account of results in patent publication US6303797A, “Sesterterpene derivatives exhibiting antifungal activities” (Banyu Pharmaceutical Co., Ltd., priority 1998, dated 2001).

≈ marks a conversion by molar mass, not a printed value.

One test concerns Trichosporon cutaneum IFO 1189. Put plainly: Antifungal activity, minimum growth inhibition concentration (MIC), agar plate dilution method. In kind it is cell-based. The following applies: Cutaneotrichosporon cutaneum, IFO1189, 48 h; agar plate dilution method, Trichosporon cutaneum IFO 1189, culture at 37° C. for 2 days, yeast-nitrogen base with 1% glucose.
With `C=C1C2CC3C(C(C)C)C(OC(=O)CCC)CC3(C)CC2C(C)=CCC2C(C)OC(=O)C(O)C12O` (stereo not shown) [Compound 5, 1,13a-dihydroxy-11-isopropyl-4,7,8a-trimethyl-13-methylene-2-oxo-1,2,4,4a,5,7a,8,8a,9,10,11,11a,12,12a,13,13a-hexadecahydroindeno[5',6':4,5]cycloocta[1,2-c]pyran-10-yl butanoate], 6.25 µg/mL (≈ 12.8 µM) was the least that counted as inhibitory (MIC).
Still for that read-out and setting: for `C=C1C2CC3C(C(C)C)C(OC(=O)CC(C)C)CC3(C)CC2C(C)=CCC2C(C)OC(=O)C(O)C12O` (stereo not shown) [Compound 9, 1,13a-dihydroxy-11-isopropyl-4,7,8a-trimethyl-13-methylene-2-oxo-1,2,4,4a,5,7a,8,8a,9,10,11,11a,12,12a,13,13a-hexadecahydroindeno[5',6':4,5]cycloocta[1,2-c]pyran-10-yl 3-methylbutanoate] the value was 6.25 µg/mL (≈ 12.4 µM).
As to `C=C1C2CC3C(C(C)C)C(OC(=O)C(O)CCCC)CC3(C)CC2C(C)=CCC2C(C)OC(=O)C(O)C12O` (stereo not shown) [Compound 14, 1,13a-dihydroxy-11-isopropyl-4,7,8a-trimethyl-13-methylene-2-oxo-1,2,4,4a,5,7a,8,8a,9,10,11,11a,12,12a,13,13a-hexadecahydroindeno[5',6':4,5]cycloocta[1,2-c]pyran-10-yl 2-hydroxyhexanoate], the minimum inhibitory concentration (MIC) amounted to 12.5 µg/mL (≈ 23.5 µM).
`C=C1C2CC3C(C(C)C)C(OC(=O)c4ccc(F)cc4)CC3(C)CC2C(C)=CCC2C(C)OC(=O)C(O)C12O` (stereo not shown) [Compound 23, 1,13a-dihydroxy-11-isopropyl-4,7,8a-trimethyl-13-methylene-2-oxo-1,2,4,4a,5,7a,8,8a,9,10,11,11a,12,12a,13,13a-hexadecahydroindeno[5',6':4,5]cycloocta[1,2-c]pyran-10-yl 4-fluorobenzoate] gave an MIC of 12.5 µg/mL (≈ 23.1 µM).
In turn, `C=C1C2CC3C(C(C)C)C(OC(=O)c4ccc(Cl)nc4)CC3(C)CC2C(C)=CCC2C(C)OC(=O)C(O)C12O` (stereo not shown) [Compound 26, 1,13a-dihydroxy-11-isopropyl-4,7,8a-trimethyl-13-methylene-2-oxo-1,2,4,4a,5,7a,8,8a,9,10,11,11a,12,12a,13,13a-hexadecahydroindeno[5',6':4,5]cycloocta[1,2-c]pyran-10-yl 6-chloronicotinate] returned a minimal inhibitory concentration (MIC) of 3.13 µg/mL (≈ 5.61 µM).
In turn, `C=C1C2CC3C(C(C)C)C(OS(=O)(=O)/C=C/c4ccccc4)CC3(C)CC2C(C)=CCC2C(C)OC(=O)C(O)C12O` (stereo not shown) [Compound 31, 1,13a-dihydroxy-11-isopropyl-4,7,8a-trimethyl-13-methylene-2-oxo-1,2,4,4a,5,7a,8,8a,9,10,11,11a,12,12a,13,13a-hexadecahydroindeno[5',6':4,5]cycloocta[1,2-c]pyran-10-yl (E)-2-phenyl-1-ethene-1sulfonate] registered a minimum inhibitory concentration (MIC) of 12.5 µg/mL (≈ 21.4 µM). This MIC is about 4-fold higher than that of the compound before.
On the same count and under the same terms, for `C=C1C2CC3C(C(C)C)C(OS(=O)(=O)CCCC)CC3(C)CC2C(C)=CCC2C(C)OC(=O)C(O)C12O` (stereo not shown) [Compound 32, 1,13a-dihydroxy-11-isopropyl-4,7,8a-trimethyl-13-methylene-2-oxo-1,2,4,4a,5,7a,8,8a,9,10,11,11a,12,12a,13,13a-hexadecahydroindeno[5',6':4,5]cycloocta[1,2-c]pyran-10-yl 1butanesulfonate] the value was 6.25 µg/mL; for `C=C1C2CC3C(C(C)C)C(OC(=O)NCC)CC3(C)CC2C(C)=CCC2C(C)OC(=O)C(O)C12O` (stereo not shown) [Compound 33, 1,13a-dihydroxy-11-isopropyl-4,7,8a-trimethyl-13-methylene-2-oxo-1,2,4,4a,5,7a,8,8a,9,10,11,11a,12,12a,13,13a-hexadecahydroindeno[5',6':4,5]cycloocta[1,2-c]pyran-10-yl N-ethylcarbamate], 6.25 µg/mL (≈ 12.8 µM); for `C=C1C2CC3C(C(C)C)C(OC(=O)Nc4ccc(F)cc4)CC3(C)CC2C(C)=CCC2C(C)OC(=O)C(O)C12O` (stereo not shown) [Compound 39, 1,13a-dihydroxy-11-isopropyl-4,7,8a-trimethyl-13-methylene-2-oxo-1,2,4,4a,5,7a,8,8a,9,10,11,11a,12,12a,13,13a-hexadecahydroindeno[5',6':4,5]cycloocta[1,2-c]pyran-10-yl N-(4-fluorophenyl)carbamate], 3.13 µg/mL (≈ 5.63 µM).
Regarding `C=C1C2CC3C(C(C)C)C(OC(=O)NCc4ccccc4)CC3(C)CC2C(C)=CCC2C(C)OC(=O)C(O)C12O` (stereo not shown) [Compound 40, 1,13a-dihydroxy-11-isopropyl-4,7,8a-trimethyl-13-methylene-2-oxo-1,2,4,4a,5,7a,8,8a,9,10,11,11a,12,12a,13,13a-hexadecahydroindeno[5',6':4,5]cycloocta[1,2-c]pyran-10-yl N-benzylcarbamate], 6.25 µg/mL (≈ 11.3 µM) was the least that counted as inhibitory (MIC).
On to `C=C1C2CC3C(C(C)C)C(OC(=O)NC4CCCCO4)CC3(C)CC2C(C)=CCC2C(C)OC(=O)C(O)C12O` (stereo not shown) [Compound 42, 1,13a-dihydroxy-11-isopropyl-4,7,8a-trimethyl-13-methylene-2-oxo-1,2,4,4a,5,7a,8,8a,9,10,11,11a,12,12a,13,13a-hexadecahydroindeno[5',6':4,5]cycloocta[1,2-c]pyran-10-yl N-tetrahydro-2H-pyran-2-ylcarbamate], for which inhibition of growth (MIC) required 12.5 µg/mL (≈ 22.9 µM).
`C=C1C2CC3C(C(C)C)C(OC(=O)Nc4ccccc4)CC3(C)CC2C(C)=CCC2C(C)OC(=O)C(O)C12O` (stereo not shown) [Compound 43, 1,13a-dihydroxy-11-isopropyl-4,7,8a-trimethyl-13-methylene-2-oxo-1,2,4,4a,5,7a,8,8a,9,11a,12,12a,13,13a-hexadecahydroindeno[5',6':4,5]cycloocta [1,2-c]pyran-10-yl N-phenylcarbamate] registered a minimal inhibitory concentration (MIC) of 3.13 µg/mL (≈ 5.82 µM).
On to `C=C1C2CC3C(C(C)C)C(OC(=O)NC4CCCCC4)CC3(C)CC2C(C)=CCC2C(C)OC(=O)C(O)C12O` (stereo not shown) [Compound 46, 1,13a-dihydroxy-11-isopropyl-4,7,8a-trimethyl-13-methylene-2-oxo-1,2,4,4a,5,7a,8,8a,9,10,11,11a,12,12a,13,13a-hexadecahydroindeno[5',6':4,5]cycloocta[1,2-c]pyran-10-yl N-cyclohexylcarbamate], for which the minimum inhibitory concentration (MIC) amounted to 12.5 µg/mL (≈ 23 µM).
On to `C=C1C2CC3C(C(C)C)C(NC(=O)CC(C)(O)CC(C)CC)CC3(C)CC2C(C)=CCC2C(C)OC(=O)C(O)C12O` (stereo not shown) [Compound 54, N'-(1,13a-dihydroxy-11-isopropyl-4,7,8a-trimethyl-13-methylene-2-oxo-1,2,4,4a,5,7a,8,8a,9,10,11,11a,12,12a,13,13a-hexadecahydroindeno[5',6': 4,5]cycloocta [1,2-c]pyran-10-yl)-3-hydroxy-3,5-dimethylheptanamide], for which the MIC amounted to 12.5 µg/mL (≈ 21.8 µM).
The same measure, in the same setting: for `C=C1C2CC3C(C(C)C)C(NC(=O)Cc4csc5ccccc45)CC3(C)CC2C(C)=CCC2C(C)OC(=O)C(O)C12O` (stereo not shown) [Compound 64, N'-(1,13a-dihydroxy-11-isopropyl-4,7,8a-trimethyl-13-methylene-2-oxo-1,2,4,4a,5,7a,8,8a,9,10,11,11a,12,12a,13,13a-hexadecahydroindeno[5',6': 4,5]cycloocta[1,2-c]pyran-10-yl)-3-benzo[b]thienylacetamide] the value was 6.25 µg/mL (≈ 10.6 µM); for `C=C1C2CC3C(C(C)C)C(NC(=O)Cc4ccc(Cl)cc4)CC3(C)CC2C(C)=CCC2C(C)OC(=O)C(O)C12O` (stereo not shown) [Compound 65, N'-(1,13a-dihydroxy-11-isopropyl-4,7,8a-trimethyl-13-methylene-2-oxo-1,2,4,4a,5,7a,8,8a,9,10,11,11a,12,12a,13,13a-hexadecahydroindeno[5',6': 4,5]cycloocta[1,2-c]pyran-10-yl)-4-chlorophenylacetamide], 6.25 µg/mL (≈ 11 µM).
Still for that read-out and setting: for `C[C@@H]1[C@H](O)[C@@H](C)/C=C/C=C/C=C/C=C/C=C/C=C/C=C/[C@H](O[C@@H]2O[C@H](C)[C@@H](O)[C@H](N)[C@@H]2O)C[C@@H]2O[C@](O)(C[C@@H](O)C[C@@H](O)[C@H](O)CC[C@@H](O)C[C@@H](O)CC(=O)O[C@H]1C)C[C@H](O)[C@H]2C(=O)O` [amphotericin B, reference compound] the value was at least 100 µg/mL.

The test is the same for the next values; noted with them: agar plate dilution method, Trichosporon cutaneum IFO 1189, culture at 37° C. for 2 days, yeast-nitrogen base with 1% glucose.
As for `C=C1C2CC3C(C(C)C)C(OC(=O)CC(C)(O)CC(C)CC)CC3(C)CC2C(C)=CCC2C(C)OC(=O)C(O)C12O` (stereo not shown) [BE-49385 A, reference compound], the “MIC (minimum growth inhibition concentration)” value is at least 100 µg/mL.

Staying with this test, now noted: fungi against which BE-49385 A does not show an antifungal activity.
Regarding `C=C1C2CC3C(C(C)C)C(OC(=O)CC(C)(O)CC(C)CC)CC3(C)CC2C(C)=CCC2C(C)OC(=O)C(O)C12O` (stereo not shown) [BE-49385 A, reference compound], the “antifungal activity (in words)” value is on record as “does not show an antifungal activity”.
